{"source": "patent US20260232726A1", "about": "“USE OF BORON FOR THE TREATMENT OF LEISHMANIASIS DISEASE OF NEURONAL ORIGIN” (YEDITEPE UNIVERSITESI, priority 2023, published 2026)", "key": {"leishmaniasis": {"test_system": "leishmaniasis", "conditions": "cited from earlier work"}, "[1]": {"test_system": "C8-S astrocyte cells infected with L. infantum parasites", "assay": "Infection rate of astrocytes infected with parasites after SPT treatment (flow cytometer)", "assay_type": "cell-based, Leishmania infantum", "procedure": "Leishmania infimtum (MHOM/MA/67/TTMA-P263) promastigotes are incubated in RPMI medium (heat inactivated 1 0/4) fetal bovine serum, 2 mM L-glutamine, 20 mM HEPES, 100 U/ml penicillin, 100 μg/ml streptomycin) at 27° C. Parasites reaching the logarithmic phase (10^6/ml) are made infective.\n(§1) Astrocyte C8-S murine cell line (ATCC) is grown as monolayer in RPMI 1640 nutrient medium (2 mM L-glutamine, 100 U/ml penicillin, 100 μg/ml streptomycin) with 10% FBS, heat inactivated in a humidified atmosphere environment with 5% C02 at 37° C. Cells are passaged at 3-day intervals.\nC8-S astrocytes and L. infantum promastigotes were stained with PKH26 (Red Fluorescent Cell Linker Kit, Sigma-Aldrich) and PKH67 (Green Fluorescent Cell Linker Kit, Sigma-Aldrich), respectively, according to the procedure described previously in the article by Islek et al. (2021). A total cell concentration of 10^7 cells/ml was used. Before infection, the staining rate of parasites and cells was determined by flow cytometry.\n5. Treating the Infected Astrocytes with SPT\nThe effect of SPT on the proliferation of astrocyte cells infected with parasites is analyzed. In summary, astrocytes are infected with parasites at 37° cat a ratio of 10:1 (parasite: astrocyte). After 3 and a half hours, infected astrocytes are washed with medium to remove the remaining parasites. Infected astrocytes are left to incubate with SPT at different concentration ranges for 3 days at 37° C., fixed at the end of 3 days and the infection rate is determined by flow cytometer. The percentage of infection is determined according to the following formula: […]"}, "[2]": {"test_system": "healthy C8-S astrocyte cells", "assay": "Cell viability of healthy astrocytes treated with SPT (MTS method)", "assay_type": "cell-based, murine", "procedure": "as §1\n3. Treating Astrocytes with SPT and Determining Cell Viability\nCells were seeded in 96-well culture dishes (Coming Glasswork, Coming, NY) in Dulbecco's modified Eagle's medium (DMEM) containing 10% fetal bovine serum (lnvitrogen) and 1% PSA (Biological Industries, Beit Haemek, Israel) at 8.000 cells/well and then treated with SPT, and cell viability levels were measured on days 1, 2 and 3. Cell viability is measured by using 3-(4,5-di-methyl-thiazol-2-yl)-5-(3-carboxy-methoxy-phenyl)-2-(4-sulfo-phenyl)-2H-tetrazolium (MTS)-method (CellTiter96 AqueousOne Solution; Promega, Southampton, UK). 10 μl MTS solution is added onto the cells in 100 μl growth medium and they are incubated in the dark for 2 hours. After the incubation period, viability analysis is obtained by performing absorbance measurement with an ELISA plate reader (Biotek, Winooski, VT) at 490 nm wavelength."}, "[3]": {"test_system": "GSH level in astrocytes infected with Leishmania", "assay": "Oxidative stress by measurement of glutathione (GSH) level in infected astrocytes (DTNB)", "assay_type": "cell-based, murine", "conditions": "50, 100, 150 and 200 μM SPT; 24 hours", "procedure": "6. Determining the Oxidative Stress by Measurement of Glutathione (GSH) Level in Astrocytes Infected with Leishmania\nTo determine the GSH level of infected astrocytes, cell lysate (50 ul) is suspended in DTNB (Ellman's reagent—5,5′-Dithiobis(2-nitrobenzoic acid)) (10 uL). Then, EDTA buffer solution (pH 8.2) is added to this mixture in a 96-well plate. After incubation in the dark at 37° C. for 30 minutes, absorbance is measured colorimetrically at a wavelength of 412 nm using a UV spectrophotometer (Thermo Scientific, Finland). The results are expressed as μmol/g protein."}, "[4]": {"conditions": "SPT 50-400 μM, 24, 48 and 72 hours"}}, "note": "Where two headings read alike, the source gives them in different places."}
{"smiles": "C[C@@H]1[C@H](O)[C@@H](C)/C=C/C=C/C=C/C=C/C=C/C=C/C=C/[C@H](O[C@@H]2O[C@H](C)[C@@H](O)[C@H](N)[C@@H]2O)C[C@@H]2O[C@](O)(C[C@@H](O)C[C@@H](O)[C@H](O)CC[C@@H](O)C[C@@H](O)CC(=O)O[C@H]1C)C[C@H](O)[C@H]2C(=O)O", "note": "[Amphotericin B]", "values": [{"measurement": "cure", "setting": "leishmaniasis; 6-month therapy", "result": 97, "unit": "%"}, {"measurement": "cure rate", "setting": "leishmaniasis; cases where antimonial resistance is observed", "result": "~100", "unit": "%"}]}
{"smiles": "CCCCCCCCCCCCCCCCOP(=O)([O-])OCC[N+](C)(C)C", "note": "[Miltefosine]", "values": [{"measurement": "cure", "setting": "leishmaniasis; miltefosine data compared with 6-month Amphotericin B therapy", "result": 94, "unit": "%"}, {"measurement": "cure", "setting": "leishmaniasis; oral, 3-4-week treatment", "result": "95-100%"}]}
{"smiles": "O.O.O.O.[Na+].[O-]B1OO1", "note": "[SPT, sodium perborate tetrahydrate]", "values": [{"measurement": "infection rate of infected astrocytes", "setting": "[1]; 75 μM SPT, 24 hours, negative control approximately 23%", "result": "20±3.33", "unit": "%"}, {"measurement": "infection rate of infected astrocytes", "setting": "[1]; 75 μM SPT, 72 hours, negative control 13%", "result": "approximately 4%"}, {"measurement": "infection rate of infected astrocytes", "setting": "[1]; 100 μM SPT, 24 hours, negative control approximately 23%", "result": "17±2.86", "unit": "%"}, {"measurement": "infection rate of infected astrocytes", "setting": "[1]; 150 μM SPT, 24 hours, negative control approximately 23%", "result": "11.89±3.56", "unit": "%"}, {"measurement": "infection rate of infected astrocytes", "setting": "[1]; 200 μM SPT, 24 hours, negative control approximately 23%", "result": "7.97±1.51", "unit": "%"}, {"measurement": "infection rate of infected astrocytes", "setting": "[1]; 400 μM SPT, 24 hours, negative control approximately 23%", "result": "12.63±1.78", "unit": "%"}, {"measurement": "infection rate of infected astrocytes", "setting": "[1]; 100, 150, 200, and 400 μM SPT, 72 hours, negative control 13%", "result": "~7", "unit": "%"}, {"measurement": "cell viability on astrocytes infected with Leishmania infantum promastigotes", "setting": "[1]; [4]", "result": "statistically decreased cell viability"}, {"measurement": "effect on cells infected with L. infantum parasites", "setting": "[1]; SPT 75-200 μM", "result": "significant reduction"}, {"measurement": "astrocyte cell viability compared to the negative control group", "setting": "[2]; 100 μM SPT, after 72 hours", "result": 100, "unit": "%"}, {"measurement": "cell viability of healthy C8-S astrocytes", "setting": "[2]; 200 μM SPT, 24, 48 and 72 hours", "result": "above 100%"}, {"measurement": "toxic effect on healthy cells", "setting": "[2]; [4]", "result": "showed no toxic effect on healthy cells"}, {"measurement": "GSH levels in infected astrocytes compared to the negative control", "setting": "[3]", "result": "significantly inducing GSH levels"}]}
